For assay [1], the target named is T1, wild type transthyretin (Homo sapiens, UniProt P02766). Kind of assay: Inhibition of transthyretin aggregation at acidic pH (turbidity at 400 nm). In kind it is biochemical. More on the design: isolated from pooled normal human plasma, was obtained from Scipac; purchased Scipac Ltd, Sittingbourne, Kent, UK; host or cells: pooled normal human plasma. To be noted: wild type 3.6 μM, pH 4.4, 3 d 37° C.; for Aggregation of transthyretin, Mean (1:1): ligand 3.6 μM; for Aggregation of transthyretin, Mean (3:1): ligand 10.8 μM. The protocol:
3.3.1 Wild type transthyretin. The purified wild type transthyretin (liquid and lyophilised) used in these experiments, isolated from pooled normal human plasma, was obtained from Scipac, (Sittingbourne, Kent, UK). Protein concentration was determined by absorbance at 280 nm after correction for light scattering at 320 nm using the absorption coefficient E1 cm^1%=14.0. […] Nano electrospray ionisation mass spectrometry confirmed the presence of normal and cysteinylated transthyretin monomers (Terazaki et al, 1998) under denaturing conditions, and solvent-bound transthyretin tetramer (Nettleton et al, 1998) under mild desolvation conditions.
(§1) 3.3.2 Inhibition of transthyretin aggregation by 4ajm15: In pilot experiments, transthyretin aggregates were formed from wild type transthyretin (3.6 μM) after incubation at acidic pH for 3 d at 37° C. (Colon and Kelly, 1992). The efficacy of 4ajm15 as an inhibitor of transthyretin aggregate formation was then compared with other transthyretin ligand compounds. […] After 30 min at 37° C., the pH was adjusted to pH 4.4 (with 0.2 M sodium acetate buffer pH 4.0), and the ˜1 ml mixtures were incubated unstirred for 3 d at 37° C.
(§2) Using the same method the activities of mds84 and 4ajm15 as inhibitors of the aggregation of both wild type transthyretin and the most aggressively aggregating transthyretin variant, L55P, were evaluated in triplicate with both proteins at 3.6 μM and with one (3.6 μM) or 3 equivalents (10.8 μM) of each ligand. Wild type transthyretin was studied at pH 4.4 and L55P at pH 5.0. […] Mean values and standard deviations are shown in Table 2 and in FIG. 4, where results with 1:1 molar ratio are shown cross hatched and 3:1 molar ratio in open bars.

The target of assay [2] is T2, L55P variant transthyretin (Homo sapiens, UniProt P02766, L75P). The assay is described as above. The assay is classed as biochemical. As to conditions: L55P 3.6 μM, pH 5.0; for Aggregation of transthyretin, Mean (1:1): ligand 3.6 μM; for Aggregation of transthyretin, Mean (3:1): ligand 10.8 μM. The protocol:
as §1, §2

The target in the next assay is T3, transthyretin (Homo sapiens, UniProt P02766).
T3 construct: Native tetrameric transthyretin was purified from fractionated human plasma; from tissue; host or cells: human plasma
Put plainly: Intrinsic fluorescence quenching of transthyretin by ligand titration. In kind it is binding. To be noted: 1 μM transthyretin, PBS pH 7.4, ligand 0-2 μM, excitation 280 nm, 20° C. As to the method:
3.2.1. Binding of 4ajm15 and mds84 by transthyretin. The interactions between the ligands 4ajm15 or mds84 and transthyretin were studied by monitoring intrinsic fluorescence in the emission range 300-500 nm on excitation at 280 nm using a Perkin Elmer LS55 fluorimeter and a standard 1 cm path length quartz cell at 20° C. Quenching of tryptophan was achieved by titrating 1 μM transthyretin in PBS, pH 7.4 with increasing concentrations of each ligand in the range 0-2 μM (FIG. 2A). […] At the same time the changes in 4ajm15 fluorescence upon binding to the protein were monitored in the emission range 400-600 nm and excitation at 340 nm that is the wavelength specific for 4ajm15 excitation. In these conditions, accumulation of the spectra highlights an isosbestic point at 483 nm (FIG. 2B). The same results were achieved by using mds84 (not shown). The results of the titration of 4ajm15 in presence and absence of transthyretin support a model of binding in which both the binding sites are simultaneously occupied by the palindromic ligand.
In each case increasing concentrations of ligand (0-2 μM) were added to 1 μM protein. The arrow in FIG. 2B indicates the isosbestic point at 483 nm occurring on formation of the protein ligand complex. […] The percent quenching represents ΔF/F0 where F0 is fluorescence intensity prior to the addition of ligands and AF is the decrease in fluorescence at a given ligand concentration.

Assay [3] addresses T2, L55P variant transthyretin. Kind of assay: Mass spectrometric analysis of subunit exchange. In kind it is biochemical. More on the design: made in house. As to conditions: L55P variant, decreasing molar ratios of ligand. As to the method: 4.2 Mass spectrometric analysis of subunit exchange. Recombinant wild type, L55P and V30M transthyretin variants were biosynthetically labelled with isotopes [^15N] and [^15N, ^13C] as previously described (Keetch C A et al, 2005). Immediately prior to analysis, proteins were buffer exchanged into 20 mM ammonium acetate, pH 7.0 using Micro Biospin columns (Bio-Rad, UK). The subunit composition of transthyretin was monitored as a function of time by incubating an equimolar solution (4.4 μM) of [^15N] and [^15N, ^13C] labelled proteins in the presence of 2-fold molar excess of 4ajm15 in DMSO or 2.5% DMSO alone as a control. Each experiment was carried out in triplicate at room temperature and at 4° C. as well, since it is known that subunit exchange is accelerated at low temperatures. Nanoflow ESMS was performed on a QToF2 instrument (Waters/Micromass UK, Ltd.) modified for high mass operation (Sobott et al, (2002)) and calibrated externally using caesium iodide (100 mg/ml). Each solution, 1.5 μl, was electrosprayed from gold coated borosilicate capillaries prepared in-house as described (Nettleton E J, et al, 1998). To preserve the non-covalent interactions in the transthyretin tetramer, the MS parameters applied were: capillary voltage 1.6 kV, sample cone 160 V, extractor cone 20 V, ion transfer stage pressure 7.0×10 ^−3 mbar, quadrupole analyzer pressure 9.5×10^−4 mbar and ToF analyzer pressure 1.7×10^−6 mbar. Data were processed with MassLynx software (Waters/Micromass UK, Ltd.) and are presented with minimal smoothing and without background subtraction.
This most unstable transthyretin variant rapidly undergoes spontaneous and extensive subunit exchange, as illustrated in FIG. 8. FIGS. 9-11 show the effects of decreasing molar ratios of mds84 on inhibition of subunit exchange. […] At lower molar ratios of mds84 some exchange takes place but the transthyretin molecules which bind mds84 are still completely stabilized.

Assay [4] deals with T1, wild type transthyretin. Put plainly: Differential scanning calorimetry of transthyretin with ligand. More on the design: isolated from pooled normal human plasma, was obtained from Scipac; purchased Scipac Ltd, Sittingbourne, Kent, UK; host or cells: pooled normal human plasma. To be noted: five fold molar excess of ligand. The assay is classed as binding. On the technique in general: Differential scanning calorimetry records heat flow against a reference as temperature is scanned.

Assay [5] concerns the target T2, L55P variant transthyretin. The description is as above. In kind it is binding. As to conditions: five fold molar excess of ligand.

The values that follow come from patent US8236984B2, “Compound and use thereof in the treatment of amyloidosis” (Pentraxin Therapeutics Ltd., priority 2007, dated 2012).

Each structure is given as a SMILES string.

In the case of `N[C@@H](Cc1cc(I)c(Oc2cc(I)c(O)c(I)c2)c(I)c1)C(=O)O` [T4, 3,5,3′,5′-Tetraiodo-L-Thyronine, reference compound], on wild type transthyretin [1], the “Aggregation of transthyretin, Mean (1:1)” value was 25 per cent of control with DMSO alone and the “Aggregation of transthyretin, Mean (3:1)” value is given as 1.2 per cent of control with DMSO alone. In assay [2], the “Aggregation of transthyretin, Mean (1:1)” value was 55 per cent of control with DMSO alone and the “Aggregation of transthyretin, Mean (3:1)” value is 22 per cent of control with DMSO alone. The “intrinsic fluorescence of transthyretin remaining after titration” value at transthyretin was found to be 60%.
For `O=C(O)c1ccc2nc(-c3cc(Cl)cc(Cl)c3)oc2c1` [Fx-1006A, 2-(3,5-dichlorophenyl)benzo oxazole-6-carboxylic acid, reference compound], at wild type transthyretin [1], the “Aggregation of transthyretin, Mean (1:1)” value is on record as 12.5 per cent of control with DMSO alone and the “Aggregation of transthyretin, Mean (3:1)” value is recorded as 1.14 per cent of control with DMSO alone. The “ligand bound per mole of transthyretin for complete stabilization” value in assay [3] was “two moles”. For the same molecule, at wild type transthyretin [4], the “Tm of wild type transthyretin with the ligand” value was 104.9 °C and the “increase in Tm of wild type transthyretin” value came out at 4.6 °C. In assay [2], the “Aggregation of transthyretin, Mean (1:1)” value is listed as 32 per cent of control with DMSO alone and the “Aggregation of transthyretin, Mean (3:1)” value is given as 16.8 per cent of control with DMSO alone. In assay [5], the “Tm of L55P variant transthyretin with the ligand” value was found to be 98.3 °C and the “increase in Tm of L55P variant transthyretin” value came to 3.7 °C.
